Source: patent US20120142771A1, “BIPHENYLACETAMIDE DERIVATIVE” (Dainippon Sumitomo Pharma Co., Ltd., priority 2008, published 2012)

How the values were obtained:
[1] = tested on: 6 Hz psychomotor seizure model; assay: 6 Hz psychomotor seizure model; type: in vivo, mice; conditions: mice
Procedure, shortened: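 Anticonvulsant activity was tested in the 6 Hz psychomotor seizure model in mice, a model reflecting seizures resistant to current antiepileptic drugs. 30 minutes or an hour after dosing, corneal electrical stimulation (6 Hz, 32 mA, 3 seconds) was applied to provoke forelimb myoclonus, Straub tail and immobility. Control mice received 0.5% tragacanth solution, 0.5% methylcellulose solution or olive oil.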

[2] = tested on: maximum electroshock seizure (MES) model; assay: Maximum electroshock seizure (MES) model test; type: in vivo, mice
Procedure, shortened: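 Male Slc: ddY mice (3 per group, 20-30 g) received compound orally at 50 or 100 mg/kg; controls got 0.5% tragacanth or 0.5% methylcellulose. One hour post-dose, corneal stimulation (60 Hz, 25 mA, 0.2 s) induced tonic hind-limb extensor convulsion.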

[3] = tested on: amygdala-kindling model; assay: Amygdala-kindling model in rats; type: in vivo
Source text: Test 3: Test with Amygdala-Kindling Model in Rats
Test 3 evaluates the anticonvulsant action of medicaments in rats, besides mice in Tests 1 and 2. Animal model (kindling model) used herein is a very similar model to clinical findings of focal onset seizures (i.e. simple partial seizure, complex partial seizure, and secondarily generalized tonic-clonic seizure), which is known to provide excellent clinical prediction. A chronic electrode was implanted in the cortex (frontal and posterior regions) and the amygdala of Slc: Wistar male rats (body weight 250-300 g). One week after the above operation, electrical stimulation (50 Hz, 400 μA, 1 second) into the amygdala was conducted once a day for about two weeks. The stimulation condition was determined according to the method of Loscher et al. [Epilepsy Res., 40: 63-77 (2000)]. The stimulation was continued until the seizure stage 5 in the seizure severity stages according to the method of Racine et al. [Motor seizure. Electroenceph. Clin. Neurophysiol., 32:281-294 (1972)] was observed 10 consecutive times. Kindling model was thus completed. Then, test compounds (100 mg/kg) were orally administered to this model. After an hour of administration, the rats were evaluated based on three parameters, i.e., a threshold stimulus current to induce seizure (i.e. seizure threshold), the duration of afterdischrage observed on an electroencephalogram, and seizure severity (stage scores 1-5). The results of the seizure threshold and the afterdischarge duration were shown as average percentage of change from the pretreatment value obtained before the administration of each test compound. To the control rats, 0.5% tragacanth solution was administered. Minus means decreased or shortened.

[4] = tested on: Crl: CD (SD) male rats; assay: Evaluation of antidepressant effect (forced swimming, duration of immobility); type: in vivo
Source text: Meanwhile, there are no reports about animal models which provide a good clinical prediction to evaluate the improving efficacy for bipolar disorder. However, bipolar disorder comprises “manic state” and “depressive state”, and some animals are reported to be useful as a model to evaluate the improvement of each pathological condition individually. In general, an index of manic state is excessive hyperactivity induced by administering methamphetamine and chlordiazepoxide in combination, and that of depressive state is immobility induced by forced swimming.
Test 6: Evaluation of Antidepressant Effect
Test 6 is a typical test to evaluate the antidepressant activity of medicaments (Porsolt et al., Nature, 266: 730-732, 1977, Porsolt et al., Eur. J. Pharmacol., 47: 379-391, 1978). Crl: CD (SD) male rats (12 rats in each group, body weight 200-250 g) were forced to swim for 15 minutes in a water pool with 200 mm diameter. In the pool, water was filled up to a depth of 205 mm from the bottom of the pool, and thus the rats could not touch the bottom of the pool with their hind limbs. Fifteen minutes after the completion of the forced swimming, test compounds were orally administered to the rats. On the next day, the test compounds were administered to the rats at the same dose as the previous day, and the rats were put in the pool for 5 minutes at the same clock time as the previous day. […] The antidepressant effect was evaluated by calculating how long the duration of immobility was shortened against the control. To the control, 0.5% methylcellulose solution was administered.

[5] = tested on: subcutaneously pentetrazol-injected model (scPTZ); assay: Subcutaneously pentetrazol-injected model (scPTZ) test; type: in vivo, mice; conditions: pentetrazol 85 mg/kg s.c. after 1 hour
Procedure, shortened: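 Male Slc:ddY mice (20-30 g, 3 per group) dosed orally at 50 or 100 mg/kg; pentetrazol 85 mg/kg given subcutaneously 1 h later. Controls received 0.5% tragacanth or 0.5% methylcellulose vehicle.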

[6] = oral administration at a dose of 100 mg/kg

SMILES: NC(=O)Cc1ccccc1-c1ccccc1F [Example 1, 2-(2′-Fluorobiphenyl-2-yl)acetamide]
- ED50 ([1]; Mus musculus, 6 Hz psychomotor seizure model, oral, read-out: ED50): 56.2 mg/kg
- efficacy in 6 Hz psychomotor seizure model [1, 6]: potent efficacy
- 6 Hz (Positive number/tested number) ([1]; oral, dose 100 mg/kg, 30 minutes or 1 hour after administration): 10/10/100
- responders at 50 mg/kg ([2]; Mus musculus, po, 1 h, 50 mg/kg oral, Slc: ddY male mice, 3 per group, electrical stimulation 1 hour after administration, inhibition of hind limb extension, read-out: MES (positive number/tested number) (converted)): 100%
- responders at 100 mg/kg ([2]; Mus musculus, po, 1 h, 100 mg/kg oral, Slc: ddY male mice, 3 per group, electrical stimulation 1 hour after administration, inhibition of hind limb extension, read-out: MES (positive number/tested number) (converted)): 100%
- anticonvulsant action in maximum electroshock seizure (MES) model test ([2]; mice, oral 50 or 100 mg/kg, 1 hour after administration): anticonvulsant action was observed
- Seizure threshold (uA) Δ % change ([3]; 100 mg/kg oral, 1 hour after administration, average percentage of change from pretreatment value): 69.3%
- Afterdischarge duration (sec) Δ % change ([3]; 100 mg/kg oral, 1 hour after administration, change from pretreatment value, minus means shortened): −88%
- Seizure severity score ([3]; 100 mg/kg oral, 1 hour after administration, stage scores 1-5): 2.0
- efficacy against the amygdala-kindling model [3, 6]: potent efficacy
- The rate of the shortened duration of immobility (% control) ([4]; 10 mg/kg oral): 23.4 % control
- The rate of the shortened duration of immobility (% control) ([4]; 30 mg/kg oral): 24.9 % control
- responders at 50 mg/kg ([5]; Mus musculus, po, 1 h, 50 mg/kg oral, Slc: ddY male mice, 3 per group, observed 30 minutes for clonic convulsion, read-out: scPTZ (positive number/tested number) (converted)): 66.7%
- responders at 100 mg/kg ([5]; Mus musculus, po, 1 h, 100 mg/kg oral, Slc: ddY male mice, 3 per group, observed 30 minutes for clonic convulsion, read-out: scPTZ (positive number/tested number) (converted)): 66.7%
- anticonvulsant action in subcutaneously pentetrazol-injected model (scPTZ) test ([5]; mice, oral 50 or 100 mg/kg): anticonvulsant action was observed
